Laboratory results reported in US11274083B2, “Substituted thiophenyl uracils, salts thereof and the use thereof as herbicidal agents” (Syngenta Crop Protection AG, priority 2017, dated 2022).

Assays:
Type in all cases: in vivo
Stellaria media = experiment: Herbicidal action post-emergence, greenhouse pot test; details: application rate 20 g/ha
In short: (§1)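 Weeds in sandy loam pots sprayed at one-leaf stage (2–3 weeks after sowing) with WP or EC formulations in water plus 0.5% additive, 600 L/ha, at 80 g/ha or lower. After about 3 weeks in greenhouse, efficacy scored visually versus untreated controls (100% = dead, 0% = like control).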

Abutilon theophrasti = experiment: as above
In short: as §1

Lolium rigidum = experiment: as above; details: application rate 20 g/ha
In short: as §1

Matricaria inodora = experiment: as above; details: application rate 20 g/ha
In short: as §1

Echinochloa crus-galli = experiment: as above; details: application rate 20 g/ha
In short: as §1

Polygonum convolvulus = experiment: as above; details: application rate 20 g/ha
In short: as §1

Amaranthus retroflexus = experiment: as above; details: application rate 20 g/ha
In short: as §1

Setaria viridis = experiment: as above; details: application rate 20 g/ha
In short: as §1

Alopecurus myosuroides = experiment: as above; details: application rate 20 g/ha, scored visually after about 3 weeks vs untreated controls
In short: as §1

Veronica persica = experiment: as above; details: application rate 20 g/ha
In short: as §1

Pharbitis purpurea = experiment: as above; details: application rate 20 g/ha
In short: as §1

Viola tricolor = experiment: as above; details: application rate 20 g/ha
In short: as §1

Digitaria sanguinalis = experiment: as above; details: application rate 20 g/ha
Glycine max = experiment: Crop compatibility post-emergence, greenhouse pot test
In short: (§2)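 Sandy loam pots, greenhouse; one-leaf stage, 2–3 wk post-sowing; WP or EC, aq. spray on green parts, 0.5% additive, 600 L/ha; ~3 wk; visual score % vs untreated (0 = control-like, 100 = dead).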

Triticum aestivum = experiment: as above
In short: as §2

Oryza sativa = experiment: as above
In short: as §2

Zea mays = experiment: as above
In short: as §2

Structure (SMILES) | Stellaria media (Efficacy in %) (Stellaria media) [%] | Abutilon theophrasti (Efficacy in %) (Abutilon theophrasti; application rate 20 g/ha) [%] | Matricaria inodora (Efficacy in %) (Matricaria inodora) [%] | Echinochloa crus-galli (Efficacy in %) (Echinochloa crus-galli) [%] | Polygonum convolvulus (Efficacy in %) (Polygonum convolvulus) [%] | Amaranthus retroflexus (Efficacy in %) (Amaranthus retroflexus) [%] | Setaria viridis (Efficacy in %) (Setaria viridis) [%] | Alopecurus myosuroides (Efficacy in %) (Alopecurus myosuroides) [%] | Veronica persica (Efficacy in %) (Veronica persica) [%] | Pharbitis purpurea (Efficacy in %) (Pharbitis purpurea) [%] | Viola tricolor (Efficacy in %) (Viola tricolor) [%] | Digitaria sanguinalis (Efficacy in %) (Digitaria sanguinalis) [%] | Glycine max (Efficacy in %) (Glycine max; application rate 5 g/ha) [%] | Triticum aestivum (Efficacy in %) (Triticum aestivum; application rate 5 g/ha) [%] | Abutilon theophrasti (Efficacy in %) (Abutilon theophrasti; application rate 70 g/ha) [%] | Triticum aestivum (Efficacy in %) (Triticum aestivum; application rate 20 g/ha) [%] | Oryza sativa (Efficacy in %) (Oryza sativa; application rate 20 g/ha) [%] | Zea mays (Efficacy in %) (Zea mays; application rate 20 g/ha) [%] | further results
CNC(=O)CCOC(=O)C(C)Sc1cc(-n2c(=O)cc(C(F)(F)F)n(C)c2=O)c(F)cc1Cl (stereo not drawn) [I.1-152] | 100 | 100 | 100 | 100 | 100 | 100 | 100 | 80 | 100 | 100 | 100 | 100 | 20 | 20 |  |  |  |  | Lolium rigidum (Efficacy in %) (Lolium rigidum): 80%; Oryza sativa (Efficacy in %) (Oryza sativa; application rate 5 g/ha): 10%
CCC(Sc1cc(-n2c(=O)cc(C(F)(F)F)n(C)c2=O)c(F)cc1Cl)C(=O)OCCC(=O)OCc1ccccc1 (stereo not drawn) [I.2-6] | 100 |  | 100 | 100 | 100 | 100 | 100 | 80 | 100 | 100 | 100 | 80 | 20 |  | 100 | 20 | 10 |  | Zea mays (Efficacy in %) (Zea mays; application rate 5 g/ha): 0%
CCOC(=O)COC(=O)C(CC)Sc1cc(-n2c(=O)cc(C(F)(F)F)n(C)c2=O)c(F)cc1Cl (stereo not drawn) [I.2-43, 2-Ethoxy-2-oxoethyl 2-({2-chloro-4-fluoro-5-[3-methyl-2,6-dioxo-4-(trifluoromethyl)-3,6-dihydropyrimidin-1(2H)-yl]phenyl}sulfanyl)butanoate] | 100 | 100 | 100 | 100 | 100 | 100 | 100 |  | 100 | 100 | 100 |  | 20 |  |  | 10 | 20 | 20 | 
CCOC(=O)CCOC(=O)C(CC(C)C)Sc1cc(-n2c(=O)c(C)c(C(F)(F)F)n(C)c2=O)c(F)cc1Cl (stereo not drawn) [I.14-3] |  | 100 |  |  | 100 | 100 | 90 |  | 100 | 100 | 100 |  |  |  |  | 20 | 0 |  | Glycine max (Efficacy in %) (Glycine max; application rate 20 g/ha): 20%
CCCCC(Sc1cc(-n2c(=O)cc(C(F)(F)F)n(C)c2=O)c(F)cc1Cl)C(=O)OCCC(=O)OCc1ccccc1 (stereo not drawn) [I.47-6] | 80 |  |  |  | 100 | 100 | 100 |  | 100 | 100 | 100 | 80 | 20 | 20 | 100 |  | 20 | 20 | 
